Measurements taken from US5804581A, “Inhibition of matrix metalloproteases by substituted phenalkyl compounds” (Bayer Corporation, priority 1997, dated 1998).
Where two headings read alike, the source gives them in different places.

Columns and labels:
[1] = biological target: T1, Human Recombinant Gelatinase A (MMP-2) (Homo sapiens, UniProt P08253); assay: P218 quenched fluorescence (microfluorometric profiling) assay, MMP-2; assay type: biochemical
T1 sequence (P08253 110-660): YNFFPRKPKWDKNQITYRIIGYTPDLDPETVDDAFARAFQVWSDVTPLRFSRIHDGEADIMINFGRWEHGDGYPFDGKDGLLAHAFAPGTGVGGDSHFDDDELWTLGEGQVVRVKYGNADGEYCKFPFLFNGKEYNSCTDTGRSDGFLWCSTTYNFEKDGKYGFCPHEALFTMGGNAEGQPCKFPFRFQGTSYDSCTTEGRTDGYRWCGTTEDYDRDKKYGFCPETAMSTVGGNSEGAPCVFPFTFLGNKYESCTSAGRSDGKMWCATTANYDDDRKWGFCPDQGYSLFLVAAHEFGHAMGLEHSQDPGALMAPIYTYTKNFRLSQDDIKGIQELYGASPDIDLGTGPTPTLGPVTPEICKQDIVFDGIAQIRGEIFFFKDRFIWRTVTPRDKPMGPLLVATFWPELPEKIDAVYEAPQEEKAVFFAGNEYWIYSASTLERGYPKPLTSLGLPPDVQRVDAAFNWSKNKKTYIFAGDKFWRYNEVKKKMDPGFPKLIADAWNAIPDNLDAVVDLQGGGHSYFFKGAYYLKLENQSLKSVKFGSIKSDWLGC

[2] = biological target: T2, Recombinant Human CHO Stromelysin (MMP-3) (Homo sapiens, UniProt P08254); assay: P218 quenched fluorescence (microfluorometric profiling) assay, MMP-3; assay type: biochemical
T2 construct: made in house; host or cells: CHO cells
T2 sequence (P08254 100-477): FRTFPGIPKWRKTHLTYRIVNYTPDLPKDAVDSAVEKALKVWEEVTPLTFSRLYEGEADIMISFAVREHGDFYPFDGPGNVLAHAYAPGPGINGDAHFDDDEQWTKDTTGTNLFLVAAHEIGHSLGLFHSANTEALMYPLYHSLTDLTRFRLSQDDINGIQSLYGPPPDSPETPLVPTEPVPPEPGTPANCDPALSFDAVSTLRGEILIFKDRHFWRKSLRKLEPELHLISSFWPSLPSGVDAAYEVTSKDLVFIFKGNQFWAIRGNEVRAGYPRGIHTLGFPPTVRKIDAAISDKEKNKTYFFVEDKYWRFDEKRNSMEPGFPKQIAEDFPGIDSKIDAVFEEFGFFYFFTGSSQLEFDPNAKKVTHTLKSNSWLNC
Excerpt: P218 is a synthetic substrate containing a 4-acetyl-7-methoxycoumarin (MCA) group in the N-terminal position and a 3-[2, 4-dinitrophenyl]-L-2,3-diaminopropionyl (DPA) group internally.
The reaction was stopped by addition of soybean trypsin inhibitor (SBTI; 5:1 w/w to trypsin concentration). This activation protocol results in the formation of 45 kDa active MMP-3, which still contains the C-terminal portion of the enzyme.
Microfluorometric Reaction Buffer (MRB): Dilution of test compounds, enzymes, and P218 substrate for the microfluorometric assay were made in microfluorometric reaction buffer consisting of 50 mM 2-(N-morpholino)ethanesulfonic acid (MES) at pH 6.5 with 10 mM CaCl2, 150 mM NaCl, 0.005% Brij-35 and 1% DMSO.
MMP Microfluorometric Profiling Assay. The assay is done with a final substrate concentration of 6 μM P218 and approximately 0.5 to 0.8 nM MMP with variable drug concentrations. The Hamilton is programmed to serially dilute up to 11 compounds from a 2.5 mM stock (100% DMSO) to 10× the final compounds concentrations in the assay. Initially, the instrument delivers various amounts of microfluoromentric reaction buffer (MRB) to a 96 tube rack of 1 ml Marsh dilution tubes. The instrument then picks up 20 μl of inhibitor (2.5 mM) from the sample rack and mixes it with a buffer in row A of the Marsh rack, resulting in a 50 μM drug concentration. The inhibitors are then serially diluted to 10, 5, 1, 0.2, 0.05 and 0.01 μM. […] The instrument re-mixes and loads 14.5 μl of diluted compound from rows A to G in the Marsh rack to corresponding rows in the microtiter plate. (Row H represents the "background" row and 39.5 μl of MRB is delivered in placed of drug or enzyme). […] (The enzyme reservoir is pretreated with 1% BSA in 50 mM Tris, pH 7.5 containing 150 mM NaCl for 1 hour at room temp., followed by extensive H2 O washing and drying at room temp.).
IC50 and Ki Determination in Microfluorometric Assay: Data generated on the Cytofluor II is copied from an exported ".CSV" file to a master Excel spreadsheet. Data from several different MMPs (one 96 well plate per MMP) were calculated simultaneously. The percent inhibition is determination for each drug concentration by comparing the amount of hydrolysis (fluorescence units generated over 25 minutes of hydrolysis) of wells containing compound with the "enzyme only" wells in column 1.

[3] = biological target: T3, Human Recombinant Gelatinase B (MMP-9) (Homo sapiens, UniProt P14780); assay: P218 quenched fluorescence (microfluorometric profiling) assay, MMP-9; assay type: biochemical
T3 construct: made in house
T3 sequence (P14780 107-707 limits assumed): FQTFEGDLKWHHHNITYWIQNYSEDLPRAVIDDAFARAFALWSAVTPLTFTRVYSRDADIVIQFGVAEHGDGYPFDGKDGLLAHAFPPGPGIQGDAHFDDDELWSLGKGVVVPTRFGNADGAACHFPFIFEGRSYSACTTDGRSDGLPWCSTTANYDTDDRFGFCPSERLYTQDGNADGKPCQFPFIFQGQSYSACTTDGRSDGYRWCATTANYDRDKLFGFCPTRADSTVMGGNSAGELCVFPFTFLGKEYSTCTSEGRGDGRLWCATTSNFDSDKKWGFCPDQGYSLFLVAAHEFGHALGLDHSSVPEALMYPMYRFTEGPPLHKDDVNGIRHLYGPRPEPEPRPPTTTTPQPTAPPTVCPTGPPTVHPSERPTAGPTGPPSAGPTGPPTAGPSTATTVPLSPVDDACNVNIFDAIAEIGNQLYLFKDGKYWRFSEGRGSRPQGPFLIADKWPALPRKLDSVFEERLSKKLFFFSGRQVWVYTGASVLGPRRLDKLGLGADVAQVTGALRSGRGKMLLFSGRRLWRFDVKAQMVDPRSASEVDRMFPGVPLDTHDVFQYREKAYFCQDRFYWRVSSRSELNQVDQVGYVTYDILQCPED
Procedure: The assay was run with each invention compound and the three MMPs, Mmp-3, MMP-9 and MMP-2, analyzed in parallel, adapted as follows for a 96-well microtiter plate and a Hamilton AT® workstation. […] P218 is currently being produced BACHEM exclusively for Bayer. P218 has the structure: […] The enzyme was dialyzed against the same buffer to remove the APMA. Hamiltion Microlab AT Plus: The MMP-Profiling Assay is performed robotically on a Hamilton MicroLab AT Plus®. The Hamilton is programmed to: (1) serially dilute up to 11 potential inhibitors automatically from a 2.5 mM stock in 100% DMSO; (2) distribute substrate followed by inhibitor into a 96 well Cytofluor plate; and (3) add a single enzyme to the plate with mixing to start the reaction. Subsequent plates for each additional enzyme are prepared automatically by beginning the program at the substrate addition point, remixing the diluted inhibitors and beginning the reaction by addition of enzyme. In this way, all MMP assays were done using the same inhibitor dilutions. Millipore Cytofluor II. […] MMP Microfluorometric Profiling Assay. […] The Hamilton is programmed to serially dilute up to 11 compounds from a 2.5 mM stock (100% DMSO) to 10× the final compounds concentrations in the assay. Initially, the instrument delivers various amounts of microfluoromentric reaction buffer (MRB) to a 96 tube rack of 1 ml Marsh dilution tubes. The instrument then picks up 20 μl of inhibitor (2.5 mM) from the sample rack and mixes it with a buffer in row A of the Marsh rack, resulting in a 50 μM drug concentration. The inhibitors are then serially diluted to 10, 5, 1, 0.2, 0.05 and 0.01 μM. […] The instrument re-mixes and loads 14.5 μl of diluted compound from rows A to G in the Marsh rack to corresponding rows in the microtiter plate. (Row H represents the "background" row and 39.5 μl of MRB is delivered in placed of drug or enzyme). […] After addition and mixing of the enzyme, the plate is covered and incubated for 25 min. at 37° C. Additional enzymes are tested in the same manner by beginning the Hamilton program with the distribution of P218 substrate to the microtiter plate, followed by re-mixing and distribution of the drug from the same Marsh rack to the microtiter plate. The second (or third, etc.) MMP to be tested is then distributed from a reagent rack to the microtiter plate with mixing, prior to covering and incubation. This is repeated for all additional MMP's to be tested. IC50 and Ki Determination in Microfluorometric Assay: Data generated on the Cytofluor II is copied from an exported ".CSV" file to a master Excel spreadsheet. […] The percent inhibition is determination for each drug concentration by comparing the amount of hydrolysis (fluorescence units generated over 25 minutes of hydrolysis) of wells containing compound with the "enzyme only" wells in column 1. Following subtraction of the background the percent inhibition was calculated as: ((Control values-Treated values)/Control values)×100 Percent inhibitions were determined for inhibitor concentrations of 5, 1, 0.5, 0.1, 0.02, 0.005 and, 0.001 μM of drug. Linear regression analysis of percent inhibition versus log inhibitor concentration was used to obtain IC50 values.

[4] = fenbufen analogs, Child, et al.; cited from earlier work
[5] = tested on: human colon tumor; conditions: intraperitoneally; orthotopic model in nude mice; cited from earlier work
[6] = tested on: human ovarian carcinoma xenografts; conditions: batimastat given intraperitoneally; cited from earlier work
[7] = P218 6 μM, pH 6.5, 25 min, 37° C., read-out: MMP-2 Ki
[8] = P218 6 μM, pH 6.5, 25 min, 37° C., read-out: MMP-3 Ki
[9] = P218 6 μM, pH 6.5, 25 min, 37° C., read-out: MMP-9 Ki

O=C(CC(CCc1ccccc1C(=O)NCCN1CCOCC1)C(=O)O)c1ccc(-c2ccc(Cl)cc2)cc1 (stereo not drawn) [Compound XXV, 4'-chloro-α-[2 [2-[[[2-(4-morpholinyl)ethyl]amino]carbonyl]phenyl]ethyl]-γ-oxo-[1,1'-biphenyl]-4-butanoic acid]
Ki [1, 7]: 0.0514 µM | Ki [2, 8]: 0.371 µM | Ki [3, 9]: 0.744 µM

O=C(O)CCNC(=O)c1cccc(CCC(CC(=O)c2ccc(-c3ccc(Cl)cc3)cc2)C(=O)O)c1 (stereo not drawn) [Compound XXVI, α-[2-[3-[[(2-carboxyethyl)amino]carbonyl]phenyl]ethyl]-4'-chloro-γ-oxo-[1,1'-biphenyl]-4-butanoic acid]
Ki [1, 7]: 0.0766 µM | Ki [2, 8]: 0.178 µM | Ki [3, 9]: 0.706 µM

O=C(CC(CCc1ccccc1C(=O)N1CCCCC1)C(=O)O)c1ccc(-c2ccc(OCc3ccccc3)cc2)cc1 (centres unmarked) [Compound XXXII]
Ki [1]: 0.013 µM | Ki [2, 8]: 0.0148 µM | Ki [3, 9]: 0.167 µM

O=C(CC(CCc1ccccc1C(=O)N1CCOCC1)C(=O)O)c1ccc(-c2ccc(Cl)cc2)cc1 (centres unmarked) [II]
Ki [1, 7]: 0.0121 µM | Ki [2]: 0.122 µM | Ki [3]: 0.323 µM

O=C(O)CC(C(=O)c1ccc(-c2ccccc2)cc1)c1ccccc1 (centres unmarked) [LXXVII]
activity as anti-inflammatory analgesic agents [4]: inactive

CCOC(=O)CCNC(=O)c1ccccc1CCC(CC(=O)c1ccc(-c2ccc(Cl)cc2)cc1)C(=O)O (centres unmarked) [VII]
Ki [1]: 0.0271 µM | Ki [2]: 0.131 µM | Ki [3]: 0.478 µM

O=C(CC(CCc1cccc(C(=O)N2CCCCC2)c1)C(=O)O)c1ccc(-c2ccc(Cl)cc2)cc1 (stereo not drawn) [XI, 4'-chloro-γ-oxo-α-[2-[3-(1-piperidinylcarbonyl)phenyl]ethyl]-[1,1'-biphenyl]-4-butanoic acid]
Ki [1, 7]: 0.0103 µM | Ki [2, 8]: 0.0344 µM | Ki [3, 9]: 0.0581 µM

O=C(CC(C(=O)O)c1ccccc1)c1ccc(-c2ccccc2)cc1 (centres unmarked) [XLIX]
activity as anti-inflammatory analgesic agents [4]: inactive

CC(CC(=O)c1ccc(-c2ccccc2)cc1)C(=O)O (centres unmarked) [XLVII]
activity as anti-inflammatory analgesic agents [4]: inactive

O=C(CC(CCc1ccc(C(=O)N2CCOCC2)cc1)C(=O)O)c1ccc(-c2ccc(Cl)cc2)cc1 (stereo not drawn) [XVII, 4'-chloro-α-[2-[4-(4-morpholinylcarbonyl)phenyl]ethyl]-γ-oxo-[1,1'-biphenyl]-4-butanoic acid]
Ki [1, 7]: 0.0536 µM | Ki [2]: 0.236 µM | Ki [3]: 0.606 µM

O=C(CC(CCc1ccc(C(=O)NCCN2CCOCC2)cc1)C(=O)O)c1ccc(-c2ccc(Cl)cc2)cc1 (centres unmarked) [XXIX]
Ki [1, 7]: 0.0814 µM | Ki ([2]; read-out: MMP-3 Ki, P218 6 μM, pH 6.5, 25 min, 37° C.): 0.465 µM | Ki ([3]; read-out: MMP-9 Ki, P218 6 μM, pH 6.5, 25 min, 37° C.): 0.449 µM

O=C(CC(CCc1cccc(C(=O)NCCN2CCOCC2)c1)C(=O)O)c1ccc(-c2ccc(Cl)cc2)cc1 (stereo not drawn) [XXVII, 4'-chloro-α-[2-[3-[[[2-(-morpholinyl)ethyl]amino]carbonyl]phenyl]ethyl]-γ-oxo-[1,1'-biphenyl]-4-butanoic acid]
Ki [1]: 0.048 µM | Ki [2, 8]: 0.353 µM | Ki [3, 9]: 0.786 µM

CNC(=O)[C@H](Cc1ccccc1)NC(=O)[C@H](CC(C)C)[C@H](CSc1cccs1)C(=O)NO [batimastat]
human colon tumor growth and spread [5]: inhibits human colon tumor growth and spread | survival of mice bearing human ovarian carcinoma xenografts [6]: prolongs the survival
